Experimental data taken from patent US10035816B2, “Compound for treating respiratory syncytial virus infection and preparation method and use thereof” (SHANDONG UNIVERSITY, priority 2016, dated 2018).

Assays:
Assay type in all cases: cell-based
[1] = system: Smo-dependent SAG induced gene expression (Hh signal pathway); assay: Hedgehog (Hh) signal pathway inhibition assay, Gli-binding site-luciferase reporter in NIH3T3 cells; settings: compound 10 uM, SAG 0.5 ìM, control (compound-free, presence of SAG) = 100% gene expression (FIG. 5)
Description: The detection procedure of compound effect on Hh signal pathway inhibiting is as following. NIH3T3 cells are seeded cells in 6 well plates, or 12 well plate one day in advance, with 5% FBS DMEM, without antibiotics per well so that they will be 90˜95% confluent at the time of transfection. Plasmids are diluted with Lipofectamine 2000 (total volume is 100-1000 ìl) and added to each well containing cells and medium, followed by incubation at 37° C. in a CO2 incubator for 48 h. […] At the end of the incubation, cells are washed, lysed and lysate transferred to a 96-well white plate. LAR II reagent is added (from Promega, Dual-luciferase reporter assay system) and samples read in a luminescence reader.
The control (compound-free, presence of SAG) is scored at 100% gene expression.

[2] = system: Human respiratory syncytial virus Long strain; assay: RSV replication assay (virus yield / focus titration in HEp-2 cells); settings: for maximum inhibition effect on RSV replication: compounds tested at 2 ìM and 8 ìM, HEp-2 cells, MOI 0.1, compared with blank control (FIG. 4)
Description: The detection procedure of compound effect on RSV replication inhibiting is as following. Human respiratory syncytial virus Long strain and HEp-2 cells were used for infection assays. Cells were maintained in DMEM, supplemented with penicillin/streptomycin and 10% FBS, and incubated at 37° C., 5% CO2. Virus was passaged in HEp-2 cells in the same conditions, but with 2% FBS. Virus stocks were prepared by infecting confluent HEp-2 cells at a low multiplicity of infection (MOI) of 0.1 for two to three days. Cells and virus-containing supernatant were then subjected to a single freeze/thaw cycle at −80° C. to release cell-bound virus, and the sample was clarified by centrifugation at 2000×g for 10 min at 4° C. The supernatant was homogenized, aliquoted and stored at −20° C.
Compounds were tested either during virus adsorption for 1 h at 4° C. to investigate viral entry, post-adsorption for 72 h at 37° C. to investigate viral propagation and replication, or during all stages of infection. The concentration of compound resulting in 50% inhibition (IC50) of virus replication was determined by focus counting (viral entry) or focus size measurement (viral propagation) and was determined using non-linear regression analysis using GraphPad Prism. To assess the cytotoxicity of compounds, a CellTiter-Glo Luminescent Cell Viability Assay was carried following the manufacturer's instruction in the conditions of the focus reduction assay.
As shown in the figure, compounds were tested at 2 concentrations (2 ìM, 8 ìM) in the RSV replication assay. The control (compound-free) is scored at 100% replication.
Human respiratory syncytial virus Long strain (ATCC reference VR-26) and HEp-2 cells (ATCC reference CCL-23) were used for infection assays. Cells were maintained in DMEM, supplemented with penicillin/streptomycin and 10% FBS, and incubated at 37° C., 5% CO2. Virus was passaged in HEp-2 cells in the same conditions, but with 2% FBS. Virus stocks were prepared by infecting confluent HEp-2 cells at a low multiplicity of infection (MOI) of 0.1 for two to three days. […]

[3] = system: RSV replication and Hh activity; assay: Coefficient of inhibition (ICrh): RSV replication inhibition vs. Hh pathway inhibition relative to CPM; settings: ratio of RSV inhibition to Hh inhibition of the analog divided by the same ratio of CPM; >1 favorable (FIG. 6)
Description: To assess the differential Hh pathway inhibition vs. replication inhibition of analogs (cpd), we determined a coefficient of inhibition (ICrh).
A score higher than 1 indicates a favorable profile.
The substep of screening compounds is that selecting the compounds with ICrh data larger than 1, and filtering out the compounds with ICrh data smaller than 1. Furthermore, the compounds with larger ICrh data will be selected preferentially.

Compound	inhibition of SAG-induced gene expression [1]	maximum inhibition effect on RSV replication [2]	coefficient of inhibition on RSV replication and Hh activity (ICrh) [3]	RSV replication in the presence of compound ([2]; compound-free control scored at 100% replication (FIG. 4))
CCNC(=O)O[C@H]1CC[C@@]2(C)C(=CC[C@H]3[C@@H]4CC[C@]5(O[C@@H]6C[C@H](C)CN(C(=O)C(F)(F)F)[C@H]6[C@H]5C)C(C)=C4C[C@@H]32)C1 [S1-2]	36%	99%	1.446	
CC1=C2C[C@H]3[C@@H](CC=C4C[C@@H](OC(=O)NC5CC5)CC[C@@]43C)[C@@H]2CC[C@]12O[C@@H]1C[C@H](C)CN(C(=O)C(F)(F)F)[C@H]1[C@H]2C [S1-4]	5%	88%	1.617	
cyclopamine [CPM, reference compound]	56%			0%
